pEC50: −log10 of the molar value. Calls of active or inactive are those of the source. The rule behind the calls is not given here.
Tests used:
[1] = Cell cycle arrest in human A2780 cells assessed as decrease in accumulation of cells at S-phase at 1.5 uM measured after 48 hrs by propidium iodide staining based FACS analysis; assay type: functional
A2780 [2] = experiment: Induction of apoptosis in human A2780 cells assessed as increase in secondary necrotic cells at 1.5 uM measured after 48 hrs by Annexin V/FITC/propidium iodide staining-based FACS analysis relative to control; assay type: functional
[3] = Cell cycle arrest in human A2780 cells assessed as loss of G2 peak at 1.5 uM measured after 24 hrs by propidium iodide staining based FACS analysis; assay type: functional
A2780 [4] = experiment: Induction of apoptosis in human A2780 cells assessed as increase in apoptotic cells at 6 uM measured after 2 days by Annexin V/FITC/propidium iodide staining-based FACS analysis; assay type: functional, cell-based
[5] = Cell cycle arrest in human A2780 cells assessed as decrease in G1 peak at 1.5 uM measured after 24 hrs by propidium iodide staining based FACS analysis; assay type: functional
[6] = Cell cycle arrest in human A2780 cells assessed as accumulation at S-phase at 1.5 uM measured after 24 hrs by propidium iodide staining based FACS analysis; assay type: functional
[7] = Cytotoxicity against human 518A2 cells measured after 96 hrs by SRB assay; assay type: functional, cell-based; settings: 518A2, 96 h
[8] = Cell cycle arrest in human A2780 cells assessed as sub-G1 peak appearance at 1.5 uM measured after 48 hrs by propidium iodide staining based FACS analysis; assay type: functional
[9] = Cytotoxicity against human 8505C cells measured after 96 hrs by SRB assay; assay type: functional, cell-based
[10] = Cytotoxicity against human HT-29 cells measured after 96 hrs by SRB assay; assay type: functional, cell-based; settings: HT-29, 96 h
[11] = Cytotoxicity against mouse NIH/3T3 cells measured after 96 hrs by SRB assay; assay type: toxicity, NIH3T3
[12] = Cytotoxicity against human A2780 cells measured after 96 hrs by SRB assay; assay type: functional, cell-based; settings: A2780, 96 h
A2780 [13] = experiment: Induction of apoptosis in human A2780 cells assessed as secondary necrotic cells at 6 uM measured after 2 days by Annexin V/FITC/propidium iodide staining-based FACS analysis; assay type: functional, cell-based
[14] = Cytotoxicity against human MCF7 cells measured after 96 hrs by SRB assay; assay type: functional, cell-based; settings: MCF7, 96 h
A2780 [15] = experiment: Induction of apoptosis in human A2780 cells assessed as apoptotic cells at 1.5 uM measured after 48 hrs by Annexin V/FITC/propidium iodide staining-based FACS analysis relative to control; assay type: functional
[16] = Cytotoxicity against human A549 cells measured after 96 hrs by SRB assay; assay type: functional, cell-based; settings: A549, 96 h
A2780 [17] = experiment: Selectivity index, ratio of EC50 for mouse NIH/3T3 cells to EC50 for human A2780 cells; assay type: functional
A2780 [18] = experiment: Induction of apoptosis in human A2780 cells assessed as increase in apoptotic cells at 1.5 uM measured after 24 hrs by Annexin V/FITC/propidium iodide staining-based FACS analysis relative to control; assay type: functional
[19] = Cell cycle arrest in human A2780 cells assessed as accumulation at S-phase at 6 uM measured after 24 hrs by propidium iodide staining based FACS analysis; assay type: functional
[20] = Cell cycle arrest in human A2780 cells assessed as decrease in G1 peak at 6 uM measured after 24 hrs by propidium iodide staining based FACS analysis; assay type: functional
[21] = Cell cycle arrest in human A2780 cells assessed as sub-G1 peak appearance at 6 uM measured after 48 hrs by propidium iodide staining based FACS analysis; assay type: functional
[22] = Cell cycle arrest in human A2780 cells assessed as loss of G2 peak at 6 uM measured after 24 hrs by propidium iodide staining based FACS analysis; assay type: functional
A2780 [23] = experiment: Induction of apoptosis in human A2780 cells assessed as secondary necrotic cells at 6 uM measured after 40 hrs by acridine orange/propidium iodide staining-based fluorescence microscopic analysis; assay type: functional, cell-based
[24] = Cell cycle arrest in human A2780 cells assessed as decrease in accumulation of cells at S-phase at 6 uM measured after 48 hrs by propidium iodide staining based FACS analysis; assay type: functional
A2780 [25] = experiment: Induction of apoptosis in human A2780 cells assessed as induction of membrane blebbing at 6 uM measured after 40 hrs by acridine orange/propidium iodide staining-based fluorescence microscopic analysis; assay type: functional, cell-based

## CC(=O)OC[C@@]1(C)[C@@H]2CC[C@]3(C)[C@H](CC=C4[C@@H]5[C@@H](C)[C@H](C)CC[C@]5(C(=O)Nc5cccc6ncccc56)CC[C@]43C)[C@@]2(C)C[C@@H](OC(C)=O)[C@@H]1OC(C)=O
[1]
  Activity: Active
A2780 [2]
  Activity: Active
[3]
  Activity: Active
A2780 [4]
  Activity: Active
[5]
  Activity: Active
[6]
  Activity: Active
[7]
  pEC50: 6.30
[8]
  Activity: Active
[9]
  pEC50: 6.05
[10]
  pEC50: 6.10
[11]
  EC50 at 96 h: 10200 nM
[12]
  pEC50: 6.40
A2780 [13]
  Activity: Active
[14]
  pEC50: 5.85
A2780 [15]
  Activity: Active
[16]
  pEC50: 5.96

## CC(=O)OC[C@@]1(C)[C@@H]2CC[C@]3(C)[C@H](CC=C4[C@@H]5[C@@H](C)[C@H](C)CC[C@]5(C(=O)Nc5cncc6ccccc56)CC[C@]43C)[C@@]2(C)C[C@@H](OC(C)=O)[C@@H]1OC(C)=O
[1]
  Activity: Active
A2780 [2]
  Activity: 45%
[3]
  Activity: Active
A2780 [4]
  Activity: Active
[5]
  Activity: Active
[6]
  Activity: Active
[7]
  pEC50: 6.72
[8]
  Activity: Active
[10]
  pEC50: 6.66
[11]
  EC50 at 96 h: 3230 nM
[12]
  pEC50: 7.10
A2780 [13]
  Activity: Active
[14]
  pEC50: 6.27
A2780 [15]
  Activity: 10%
A2780 [17]
  Ratio EC50: 40
A2780 [18]
  Activity: 20%
[16]
  pEC50: 6.54

## CC(=O)O[C@H]1C[C@]2(C)[C@H]3CC=C4[C@@H]5CC(C)(C)CC[C@]5(C(=O)Nc5cncc6ccccc56)CC[C@@]4(C)[C@]3(C)CC[C@H]2C(C)(C)[C@H]1OC(C)=O
[19]
  Activity: Active
[20]
  Activity: Active
A2780 [4]
  Activity: Active
[21]
  Activity: Active
[22]
  Activity: Active
A2780 [23]
  Activity: Active
[7]
  pEC50: 5.80
[24]
  Activity: Active
[9]
  pEC50: 5.59
[10]
  pEC50: 5.64
[11]
  EC50 at 96 h: > 60000 nM
A2780 [25]
  Activity: Active
[12]
  pEC50: 5.92
A2780 [13]
  Activity: Active
[14]
  pEC50: 5.62
[16]
  pEC50: 5.48

Reference: ChEMBL document CHEMBL3865812, “Selective killing of cancer cells with triterpenoic acid amides - The substantial role of an aromatic moiety alignment” (Eur J Med Chem, 2016)
